For the assay, the system named is mouse spleen cells. Description: Suppression of mitogen (ConA) reaction. Type of assay: cell-based, C57BL/6 mouse. To be noted: 48 hours, 3 cases, read-out: Suppression Rate of Mitogen Reaction; for inhibition at 1 µg/mL: 1 μg/ml; for inhibition at 10 µg/mL: 10 μg/ml; for inhibition at 50 µg/mL: 50 μg/ml. As for the experimental part:
If mouse spleen cells are cultured in vitro in the presence of concanavalin A (hereinafter referred to as "ConA" for short), the cells are divided and proliferated (mitogen reaction). In this system, the immunosuppressive agent of the present invention or cyclosporin A as a comparative example was added to the culture medium and the effects to the mitogen reaction were examined.
More particularly, C57BL/6 mouse was sacrificed and the spleen was removed. The spleen cells were suspended in RPMI 1640 culture medium containing 10% fetal calf serum (hereinafter referred to as "RPMI 1640" for short) so as to prepare a spleen cell suspension (5×10^6 cells/ml). In the wells of a flat-bottomed 96-well microplate, 100 μl of the suspension was placed and then 50 μl of RPMI 1640 containing ConA (4 μg/ml) as well as 50 μl of RPMI 1640 containing the test compound in the concentration shown in Table 2 were added. The cells were cultured for 48 hours (37° C. 5%CO2) As a control, 50 μl of RPMI 1640 was added. Eight hours before the termination of the culture, 2 μ Ci of [^3 H] thymidine was […], added. After termination of the culture, the cells were collected on a filter paper by using a cell harvester. After drying the filter paper, the filter paper was placed in a vial containing toluene-based scintillator and the radioactivity was measured by a liquid scintillation counter.
The suppression rate of mitogen reaction was calculated according to the following equation: [formula]

Turning to `Oc1ccc2c3c1O[C@H]1c4[nH]c5ccc(Cl)cc5c4C[C@@]4(O)[C@@H](C2)N(CC2CC2)CC[C@]314` [cyclopropylmethyl OH H NH 5'-Cl H], the inhibition at 1 µg/mL came to 12%, the inhibition at 10 µg/mL came out at 37% and the inhibition at 50 µg/mL turned out to be 100%.
The like results for `C=CCN1CC[C@]23c4c5ccc(OC(C)=O)c4O[C@H]2c2[nH]c4ccccc4c2C[C@@]3(OC(C)=O)[C@H]1C5` [allyl OAc Ac NH H H] were, in that order, 2%, 40% and 100%.
The like results for `Oc1ccc2c3c1O[C@H]1c4nc5ccccc5cc4C[C@@]4(O)[C@@H](C2)N(CC2CC2)CC[C@]314` [cyclopropylmethyl OH H CH H H] were, in that order, 15%, 43% and 75%.
The like results for `C=CCN1CC[C@]23c4c5ccc(O)c4O[C@H]2c2c(c4ccccc4n2C)C[C@@]3(O)[C@H]1C5` [allyl OH H NMe H H] were, in that order, 13%, 50% and 100%.
For `Oc1ccc2c3c1O[C@H]1c4[nH]c5ccc6ccccc6c5c4C[C@@]4(O)[C@@H](C2)N(CC2CC2)CC[C@]314` [cyclopropylmethyl OH H NH 4',5'-benzo], the inhibition at 1 µg/mL is 2%, the inhibition at 10 µg/mL stood at 30% and the inhibition at 50 µg/mL is 88%.
The like results for `COc1ccc2c3c1O[C@H]1c4[nH]c5ccccc5c4C[C@@]4(O)[C@@H](C2)N(CC2CC2)CC[C@]314` [cyclopropylmethyl OH Me NH H H] were, in that order, 9%, 65% and 100%.
Taken in the same sequence, the figures for `CN1CC[C@]23c4c5ccc(O)c4O[C@H]2c2[nH]c4ccccc4c2C[C@H]3[C@H]1C5` [Me H H NH H H] were 0%, 12% and 52%.
Taken in the same sequence, the figures for `C=CCN1CC[C@]23c4c5ccc(O)c4O[C@H]2c2[nH]c4c(Cl)cccc4c2C[C@@]3(O)[C@H]1C5` [allyl OH H NH 7'-Cl H] were 17%, 50% and 100%.
Consider `CC(=O)O[C@@]12Cc3c([nH]c4ccccc34)[C@@H]3Oc4c(O)ccc5c4[C@@]31CCN(CC1CC1)[C@@H]2C5` [cyclopropylmethyl OAc H NH H H], for which the inhibition at 1 µg/mL came to 2%, the inhibition at 10 µg/mL came out at 70% and the inhibition at 50 µg/mL amounted to 100%.
The like results for `Oc1ccc2c3c1O[C@H]1c4[nH]c5ccc(Br)cc5c4C[C@@]4(O)[C@@H](C2)N(CC2CC2)CC[C@]314` [cyclopropylmethyl OH H NH 5'-Br H] were, in that order, 7%, 40% and 100%.
The like results for `O=[N+]([O-])c1cccc2c3c([nH]c12)[C@@H]1Oc2c(O)ccc4c2[C@@]12CCN(CC1CC1)[C@H](C4)[C@]2(O)C3` [cyclopropylmethyl OH H NH 7'-NO2 H] were, in that order, 5%, 55% and 100%.
Taken in the same sequence, the figures for `CC(=O)Oc1ccc2c3c1O[C@H]1c4[nH]c5ccccc5c4C[C@@]4(OC(C)=O)[C@@H](C2)N(CC2CC2)CC[C@]314` [cyclopropylmethyl OAc Ac NH H H] were 4%, 55% and 100%.
Turning to `C=CCN1CC[C@]23c4c5ccc(O)c4O[C@H]2c2[nH]c4ccc(C)cc4c2C[C@@]3(O)[C@H]1C5` [allyl OH H NH 5'-Me H, 5'-methylnaloxindole], the inhibition at 1 µg/mL is 22%, the inhibition at 10 µg/mL worked out at 45% and the inhibition at 50 µg/mL worked out at 100%.
Taken in the same sequence, the figures for `Oc1ccc2c3c1O[C@H]1c4nc5ccccc5nc4C[C@@]4(O)[C@@H](C2)N(CC2CC2)CC[C@]314` [cyclopropylmethyl OH H N H H] were 10%, 34% and 55%.
As to `C=CCN1CC[C@]23c4c5ccc(OC)c4O[C@H]2c2[nH]c4ccccc4c2C[C@@]3(O)[C@H]1C5` [allyl OH Me NH H H], the inhibition at 1 µg/mL amounted to 17%, the inhibition at 10 µg/mL was determined as 32% and the inhibition at 50 µg/mL was 100%.
For the compound `Cc1ccc2c3c([nH]c2c1)[C@@H]1Oc2c(O)ccc4c2[C@@]12CCN(CC1CC1)[C@H](C4)[C@]2(O)C3` [cyclopropylmethyl OH H NH 6'-Me H], the inhibition at 1 µg/mL came out at 0%, the inhibition at 10 µg/mL came out at 28% and the inhibition at 50 µg/mL came to 100%.
The like results for `Cc1ccc2[nH]c3c(c2c1)C[C@@]1(O)[C@H]2Cc4ccc(O)c5c4[C@@]1(CCN2CC1CC1)[C@H]3O5` [cyclopropylmethyl OH H NH 5'-Me H] were, in that order, 8%, 34% and 100%.
The like results for `Oc1ccc2c3c1O[C@H]1c4[nH]c5c(Cl)cccc5c4C[C@@]4(O)[C@@H](C2)N(CC2CC2)CC[C@]314` [cyclopropylmethyl OH H NH 7'-Cl H] were, in that order, 15%, 75% and 100%.
As for `Oc1ccc2c3c1O[C@H]1c4[nH]c5c(F)cccc5c4C[C@@]4(O)[C@@H](C2)N(CC2CC2)CC[C@]314` [cyclopropylmethyl OH H NH 7'-F H], the inhibition at 1 µg/mL worked out at 15%, the inhibition at 10 µg/mL was determined as 61% and the inhibition at 50 µg/mL is 100%.
The like results for `C=CCN1CC[C@]23c4c5ccc(O)c4O[C@H]2c2oc4ccccc4c2C[C@@]3(O)[C@H]1C5` [allyl OH H O H H] were, in that order, 6%, 45% and 100%.
The like results for `Cn1c2c(c3ccccc31)C[C@@]1(O)[C@H]3Cc4ccc(O)c5c4[C@@]1(CCN3CC1CC1)[C@H]2O5` [cyclopropylmethyl OH H NMe H H] were, in that order, 15%, 69% and 100%.

The record behind these values is patent US5332818A, “Immunosuppressive agent and process of producing the same” (Toray Industries, Inc., priority 1989, dated 1994).
